Converted amounts (≈) assume the structure as drawn.
Assays:
Format in all cases: physicochemical
[1] = Drug-excipient compatibility study: related substance; details: higher temperature conditions
Protocol: Accurately weighed quantity of methocarbamol, and individual excipients were mixed as per ratio mentioned in the drug-excipient compatibility table. Mixtures were filled in glass vials, plugged using LDPE plugs which were manually punctured.
Filled glass vials were exposed to temperature and humidity conditions i.e. 60° C.±2° C., and 40° C.±2° C./75±5% RH for 4 weeks.

[2] = Solubility of methocarbamol in different vehicles at various pH conditions
Protocol: Solubility of Methocarbamol was carried out in different vehicles at various pH conditions, and the results are presented in Table 1.

[3] = Photostability study of formulation B3
[4] = API in Protected Condition (Control)

COc1ccccc1OCC(O)COC(N)=O (stereo not drawn) [methocarbamol]
Stability of methocarbamol in aqueous phase [1]: probable instability | Vol. req. to dissolve 1500 mg API ([2]; 0.1N HCl): 100.00 mL | solubility ([2]; 0.1N HCl, simulated gastric fluid): 15.5 mg/mL (≈ 64.1 mM) | Vol. req. to dissolve 1500 mg API ([2]; Purified water): 98.02 mL | Solubility (conclusion) ([2]; all pH media): high solubility | solubility ([2]; aqueous buffer, pH 4.5 acetate buffer): 16.9 mg/mL (≈ 69.9 mM) | solubility ([2]; aqueous buffer, pH 6.8 phosphate buffer): 14.1 mg/mL (≈ 58.4 mM) | solubility ([2]; aqueous buffer, pH 7.2 phosphate buffer): 13.6 mg/mL (≈ 56.5 mM) | Vol. req. to dissolve 1500 mg API ([2]; pH 4.5 acetate buffer): 88.96 mL | Vol. req. to dissolve 1500 mg API ([2]; pH 6.8 phosphate buffer): 106.38 mL | Vol. req. to dissolve 1500 mg API ([2]; pH 7.2 phosphate buffer): 109.96 mL | solubility ([2]; purified water, water): 15.3 mg/mL (≈ 63.4 mM) | Assay (%) [3, 4]: 99.2% | Related Substances: Guaifenesin [3, 4]: 0.01% | Related Substances: Methocarbamol Isomer [3, 4]: 0.01% | Related Substances: Total Impurities [3, 4]: 0.02% | Assay (%) ([3]; API in open Exposed Condition): 99.8% | Related Substances: Guaifenesin ([3]; API in open Exposed Condition): 0.01% | Related Substances: Methocarbamol Isomer ([3]; API in open Exposed Condition): 0.02% | Related Substances: Total Impurities ([3]; API in open Exposed Condition): 0.03% | Assay (%) ([3]; API, Initial): 99.3% | Related Substances: Guaifenesin ([3]; API, Initial): 0.03% | Related Substances: Total Impurities ([3]; API, Initial): 0.03% | Description ([3]; Methocarbamol API (Batch no: A), Initial, open Exposed Condition and Protected Condition (Control)): White Bulky Powder odorless
